We go through two substances from publication PMC5667506, “Potent and selective inhibition of SH3 domains with dirhodium metalloinhibitors” (Chemical Science, 2015).

One assay addresses T1, Lyn SH3 H78A mutant (Homo sapiens, UniProt P07948, H78A).
T1 construct: The lyn SH3 domain was amplified by PCR using Phusion DNA polymerase; GST (N, cleaved yes); made in house; host or cells: E. coli BL21 (DE3)
Description: Binding to Lyn SH3 H78A mutant. The settings on record: read-out: affinity. The procedure: The remarkable 6 nM affinity, far stronger than that of any reported non-protein ligand for SH3 domains, led us to study the structural basis of the observed affinity. […] The H78A and H96A double mutant binds much more weakly (>5 μM). […] That the majority of the stabilization energy comes from the first histidine coordination is consistent with the negative cooperativity generally seen for axial coordination to rhodium(II): a second coordination in solution is roughly two orders of magnitude less favorable.[40]–[43]
Abl SH3 domain preparation. The abl SH3 domain was amplified by PCR using Phusion DNA polymerase (Finnzymes). The
reactions were performed following manufacture's protocol with Phusion HF buffer and 5% DMSO. Primers were designed as
follows: 5'-[…]-3' (BamHI site underlined) and a reverse primer, 5'-
-3' (EcoRI site underlined). The resultant product was digested with
BamHI and EcoRI and subcloned into BamHI-EcoRI sites of pGex-KTO. Confirmed PCR fidelity by sequencing.
Hck SH3 domain preparation. The hck SH3 domain was amplified by PCR using Phusion DNA polymerase (Finnzymes). The
Lyn SH3 domain preparation. The lyn SH3 domain was amplified by PCR using Phusion DNA polymerase (Finnzymes). The […]
assessed by SDS-PAGE using 12% Bis-Tris gels (Invitrogen). […]
concentrated, and aliquoted for storage at –80 °C. Concentration was determined using the absorbance at 280 nm (NanoDrop, […]

A further assay deals with Fyn SH3 domain. More on the design: method as in PMID 22621321. The settings on record: Fyn SH3, ITC; previously reported ref 52; cited from earlier work.
In assay [1] the target is T2, Full-length Lyn kinase (GST-tagged Lyn B) (Homo sapiens, UniProt P07948).
T2 construct: Full-length Lyn kinase (74 nM) was treated with substrate peptide and ATP; purchased Promega
T2 sequence (P07948 1-491 isoform P07948-2): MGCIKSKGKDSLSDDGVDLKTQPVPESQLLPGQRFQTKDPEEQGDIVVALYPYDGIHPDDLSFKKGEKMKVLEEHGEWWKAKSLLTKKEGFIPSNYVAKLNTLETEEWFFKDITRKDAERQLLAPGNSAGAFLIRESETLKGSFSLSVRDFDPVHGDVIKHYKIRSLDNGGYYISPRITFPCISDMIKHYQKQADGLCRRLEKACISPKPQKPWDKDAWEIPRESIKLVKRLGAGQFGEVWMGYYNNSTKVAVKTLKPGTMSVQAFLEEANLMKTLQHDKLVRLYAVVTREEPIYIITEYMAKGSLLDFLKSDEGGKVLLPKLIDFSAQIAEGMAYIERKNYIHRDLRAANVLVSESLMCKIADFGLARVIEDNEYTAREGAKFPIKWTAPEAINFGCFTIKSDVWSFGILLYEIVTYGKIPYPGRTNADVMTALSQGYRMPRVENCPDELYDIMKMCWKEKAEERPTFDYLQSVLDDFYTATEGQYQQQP
Description: Lyn kinase activation assay (ADP-Glo Kinase Assay). The assay is classed as biochemical. The note with it: 74 nM Lyn, 5 min. The protocol:
We examined phosphorylation of a peptide substrate at low enzyme concentration (0.074 μM) and short reaction time (t = 5 min) to minimize the alternative autophosphorylation activation pathway (Fig. 6). Kinase activation with traditional ligands has typically required high ligand concentrations (∼1 mM) to overcome the intramolecular nature of the SH3–kinase domain interaction.
Fig. 6 Activation of Lyn kinase activity by a metallopeptide, S2E^Rh, and the parent peptide, S2E. […] Full-length Lyn kinase (74 nM) was treated with substrate peptide and ATP. Kinase activity was measured after 5 min in an adaptation of reported methods.[5] See ESI ^† for details.
All chemical reagents were purchased from Sigma-Aldrich and were used without further purification. […]
Kinase assay. ATP turnover by Lyn was measured using the ADP-GloTM Kinase Assay (Promega) according to the manufacturer’s protocol. Briefly, final concentrations of 72 μM ATP, 74 nM Lyn (GST-tagged Lyn B), and 240 μM substrate peptide (all from Promega) were combined in buffer (40 mM Tris, 50 μM dithiothreitol, 2 mM MnCl2 and 0.1 mg/mL BSA at pH 7.5) with a solution of the desired treatment (or control) in the same buffer for a final reaction volume of 5 µL. The kinase reaction was allowed to proceed at room temp. for 5 min from addition of ATP before the start of the ADP-Glo protocol halted the reaction. Chemiluminescence data were acquired on a Tecan Infinite M1000 microplate reader in white 384 well low volume plates (Corning Costar 3674) with an integration time of 250 ms per well. […]

Rh2(OAc)3 = dirhodium(II) triacetate, bound to the side-chain carboxylate

T1 sequence (P07948 63-123 H78A limits assumed): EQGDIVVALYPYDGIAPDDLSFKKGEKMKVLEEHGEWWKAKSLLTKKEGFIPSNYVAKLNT

For “AcVELARRPLPPLPN-NH2 (Ac-VE(Rh2(OAc)3)LARRPLPPLPN-NH2; also: metal complex: Glu2 carboxylate bound to dirhodium(II) triacetate) [S2E^Rh, rhodium(II) metallopeptide made from S2E peptide (Ac…-NH2) and Rh2(tfa)(OAc)3]”, in the assay with Lyn SH3 H78A mutant, the Kd turned out to be 0.02 µM.
Regarding AcVELARRPLPPLPN-NH2 [S2E^Rh], the Kd at Fyn SH3 domain is 0.769 µM. In assay [1], the “concentration above which slight activation is seen” value is listed as “above 100 μM”, the “concentration at which complete activation response was achieved” value came to 630 nM and the “concentration giving strong Lyn activation” value was 200 nM.
